This note sets out measurements from PubChem BioAssay AID264 (DTP/NCI, 2004).

The assay has as its system nude mice, LX-1 lung xenograft intrarenal, tumor weight T/C. Put plainly: NCI In Vivo Anticancer Drug Screen. Data for tumor model Human Lung LX-1 Xenograft (intrarenal inoculation) in NU/NU Swiss (nude) mice. The conditions noted are these: endpoint: mean tumor weight change, higher = larger tumour. In outline: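 In vivo, transplantable tumor; compound vs vehicle arms; tumor size measured; value = T/C.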

Setting [1] is: dose: 12.5 mg/kg/injection, schedule: Q04DX003 (sc), vehicle: saline.
The mark [2] stands for this setting: dose: 150.0 mg/kg/injection, schedule: Q04DX003 (sc), vehicle: Klucel (hydroxypropylcellulose) (HPC).
[3] abbreviates: dose: 300.0 mg/kg/injection, schedule: Q04DX003 (sc), vehicle: Klucel (hydroxypropylcellulose) (HPC).
Where [4] appears, read: dose: 600.0 mg/kg/injection, schedule: Q04DX003 (sc), vehicle: Klucel (hydroxypropylcellulose) (HPC).
Setting [5] is: dose: 50.0 mg/kg/injection, schedule: Q01DX010 (sc), vehicle: saline with Tween-80.
[6] abbreviates: dose: 200.0 mg/kg/injection, schedule: Q01DX010 (sc), vehicle: saline with Tween-80.
[7] abbreviates: dose: 400.0 mg/kg/injection, schedule: Q01DX010 (sc), vehicle: saline with Tween-80.
Where [8] appears, read: dose: 100.0 mg/kg/injection, schedule: Q01DX010 (sc), vehicle: saline with Tween-80.
The mark [9] stands for this setting: dose: 50.0 mg/kg/injection, schedule: Q04DX003 (sc), vehicle: Klucel (hydroxypropylcellulose) (HPC).
Setting [10] is: dose: 300.0 mg/kg/injection, schedule: Q04DX003 (sc), vehicle: saline with Tween-80.
[11] abbreviates: dose: 1200.0 mg/kg/injection, schedule: Q04DX003 (sc), vehicle: saline with Tween-80.

Structures are written as SMILES. Where “and” joins values, the source holds several entries; their conditions need not be identical. Equal entries are not always repeated. Results filed as inconclusive are left out.

Turning to `CCOC(=O)NC1=C(N2CC2)C(=O)C(NC(=O)OCC)=C(N2CC2)C1=O`, the T/C reads like this: (dose: 0.78 mg/kg/injection, schedule: Q01DX010 (sc), vehicle: saline) 67 % of control; (dose: 1.56 mg/kg/injection, schedule: Q01DX010 (sc), vehicle: saline) 74 % of control; (dose: 1.56 mg/kg/injection, schedule: Q01DX010 (sc), vehicle: suspension in saline) 56 % of control; (dose: 3.12 mg/kg/injection, schedule: Q04DX003 (sc), vehicle: suspension in saline) 77 % of control; (dose: 3.13 mg/kg/injection, schedule: Q01DX010 (sc), vehicle: saline) 81 % of control; (dose: 3.13 mg/kg/injection, schedule: Q01DX010 (sc), vehicle: suspension in saline) 89 % of control. Also, the T/C by setting is: (dose: 3.13 mg/kg/injection, schedule: Q04DX003 (ip), vehicle: saline) 64 % of control; (dose: 6.25 mg/kg/injection, schedule: Q01DX010 (sc), vehicle: saline) 35 % of control; (dose: 6.25 mg/kg/injection, schedule: Q04DX003 (ip), vehicle: saline) 96 % of control; (dose: 6.25 mg/kg/injection, schedule: Q04DX003 (sc), vehicle: saline) 75 % of control; (dose: 6.25 mg/kg/injection, schedule: Q04DX003 (sc), vehicle: suspension in saline) 65 % of control; (dose: 12.5 mg/kg/injection, schedule: Q04DX003 (ip), vehicle: saline) 34 % of control. Moreover, the T/C was 71 % of control under setting [1] and 9 % of control (dose: 25.0 mg/kg/injection, schedule: Q04DX003 (ip), vehicle: saline).

Take `CC(=O)OCC1OC(OC(C)=O)C(NC(=O)N(CCCl)N=O)C(OC(C)=O)C1OC(C)=O` (stereo not given): the T/C reads like this: (dose: 12.0 mg/kg/injection, schedule: Q04DX003 (sc), vehicle: Klucel (hydroxypropylcellulose) (HPC)) 36 % of control; (dose: 24.0 mg/kg/injection, schedule: Q04DX003 (sc), vehicle: Klucel (hydroxypropylcellulose) (HPC)) 25 % of control.

With `Nc1ncnc2c1ncn2C1OC(COP(=O)(O)O)C(O)C1O` (stereo not given), the T/C reads like this: (dose: 100.0 mg/kg/injection, schedule: Q01DX010 (sc), vehicle: saline) 38 % of control; (dose: 200.0 mg/kg/injection, schedule: Q01DX010 (sc), vehicle: saline) 78 % of control; (dose: 400.0 mg/kg/injection, schedule: Q01DX010 (sc), vehicle: saline) 59 % of control; (dose: 800.0 mg/kg/injection, schedule: Q01DX010 (sc), vehicle: saline) 67 % of control.

Regarding `NC(C/[N+]([O-])=N/O)C(=O)O` (stereo not given), the T/C (dose: 50.0 mg/kg/injection, schedule: Q01DX010 (sc), vehicle: saline) was 47 % of control.

`Nc1nc(=O)n(C2OC(CO)C(O)C2O)cc1F` (stereo not given): the T/C under setting [2] was 74 % of control; the T/C under setting [3] is 68 % of control; the T/C under setting [4] was 84 % of control; the T/C (dose: 1200.0 mg/kg/injection, schedule: Q04DX003 (sc), vehicle: Klucel (hydroxypropylcellulose) (HPC)) is 48 % of control.

Regarding `OCC1OC(n2cnc3cncnc32)C(O)C1O` (stereo not given), the T/C is, setting by setting: under setting [1], 89 % of control; (dose: 25.0 mg/kg/injection, schedule: Q04DX003 (sc), vehicle: saline) 118 % of control; (dose: 50.0 mg/kg/injection, schedule: Q04DX003 (sc), vehicle: saline) 69 % of control.

Turning to `O=C1N(Cl)C(=O)C(c2ccc(Cl)cc2)(c2ccc(Cl)cc2)N1Cl`, the T/C reads like this: under setting [5], 98 % of control; under setting [6], 57 % of control; under setting [7], 118 % of control.

Regarding `Nc1nc(/C=C(/O)c2ccccc2)c2ncn(C3OC(CO)C(O)C3O)c2n1` (stereo not given), the T/C is, setting by setting: (dose: 100.0 mg/kg/injection, schedule: Q04DX003 (sc), vehicle: distilled water + Tween-80) 111 % of control; (dose: 200.0 mg/kg/injection, schedule: Q04DX003 (sc), vehicle: distilled water + Tween-80) 100 % of control; (dose: 400.0 mg/kg/injection, schedule: Q04DX003 (sc), vehicle: distilled water + Tween-80) 99 % of control.

With `CCNC(=O)OCc1c(COC(=O)NCC)c(-c2ccc(Cl)c(Cl)c2)n2c1CCC2`, the T/C reads like this: under setting [8], 26 % of control and 31 % of control; under setting [6], 95 % of control.

Regarding `CC(=O)OCC(=O)[C@@]12OC(C)(C)O[C@@H]1C[C@H]1[C@@H]3CC(C=O)=C4C=C(OCCCl)CC[C@]4(C)[C@@]3(F)[C@@H](O)C[C@@]12C`, the T/C was 79 % of control (dose: 25.0 mg/kg/injection, schedule: Q04DX003 (sc), vehicle: Klucel (hydroxypropylcellulose) (HPC)) and 72 % of control under setting [9].

For the molecule `Nc1nc(N)c2cc(S(=O)(=O)c3ccccc3)ccc2n1`, the T/C was 116 % of control (dose: 150.0 mg/kg/injection, schedule: Q04DX003 (sc), vehicle: saline with Tween-80); 77 % of control under setting [10]; 87 % of control (dose: 600.0 mg/kg/injection, schedule: Q04DX003 (sc), vehicle: saline with Tween-80); 95 % of control under setting [11].

For the molecule `Cc1cc(O)c(N=Nc2ccc(C(=O)O)cc2)cc1C`, the T/C by setting is: under setting [8], 77 % of control; under setting [6], 67 % of control; under setting [7], 62 % of control; (dose: 800.0 mg/kg/injection, schedule: Q01DX010 (sc), vehicle: saline with Tween-80) 59 % of control.

With `CNC(=O)OCc1c(COC(=O)NC)c(C)n(-c2ccc(OC)cc2)c1C`, the T/C is 51 % of control (dose: 25.0 mg/kg/injection, schedule: Q01DX010 (sc), vehicle: Klucel (hydroxypropylcellulose) (HPC)); 59 % of control and 63 % of control (dose: 50.0 mg/kg/injection, schedule: Q01DX010 (sc), vehicle: Klucel (hydroxypropylcellulose) (HPC)); 38 % of control under setting [9]; 87 % of control (dose: 800.0 mg/kg/injection, schedule: Q04DX003 (sc), vehicle: Klucel (hydroxypropylcellulose) (HPC)).

On to `O=Cc1ccc([N+](=O)[O-])s1`, for which the T/C was 94 % of control (dose: 25.0 mg/kg/injection, schedule: Q01DX010 (sc), vehicle: saline with Tween-80); 105 % of control under setting [5]; 81 % of control under setting [8]; 30 % of control under setting [6].

For `C=Cc1cnc([N+](=O)[O-])n1C`, the T/C reads like this: (dose: 75.0 mg/kg/injection, schedule: Q04DX003 (sc), vehicle: Klucel (hydroxypropylcellulose) (HPC)) 106 % of control; under setting [2], 96 % of control; under setting [3], 98 % of control; under setting [4], 92 % of control.

As for `CCCCOC(=O)/C=C(\Br)C(=O)OCCCC`, the T/C runs as follows: under setting [8], 166 % of control; under setting [6], 281 % of control; under setting [7], 251 % of control.

Take `c1csc(C[N+]23CN4CN(CN(C4)C2)C3)c1`: the T/C was 112 % of control (dose: 100.0 mg/kg/injection, schedule: Q04DX003 (sc), vehicle: saline); 100 % of control (dose: 200.0 mg/kg/injection, schedule: Q04DX003 (sc), vehicle: saline); 92 % of control (dose: 400.0 mg/kg/injection, schedule: Q04DX003 (sc), vehicle: saline).

Take `S=c1[nH]cc2cnccn12`: the T/C is 151 % of control under setting [10]; 83 % of control under setting [11]; 94 % of control (dose: 2400.0 mg/kg/injection, schedule: Q04DX003 (sc), vehicle: saline with Tween-80).

For `C[C@@](O)(/C=C/[C@H]1CC=CC(=O)O1)[C@@H](C[C@@H](O)\C=C/C=C\C=C\CO)OP(=O)(O)O`, the T/C reads like this: (dose: 7.5 mg/kg/injection, schedule: Q04DX003 (sc), vehicle: other) 160 % of control; (dose: 15.0 mg/kg/injection, schedule: Q04DX003 (sc), vehicle: other) 168 % of control.

As for `CCCCCC[C@H]([C@H](C)O)n1cnc2c(N)ncnc21`, the T/C is, setting by setting: (dose: 100.0 mg/kg/injection, schedule: Q01DX010 (sc), vehicle: Klucel (hydroxypropylcellulose) (HPC)) 52 % of control; (dose: 200.0 mg/kg/injection, schedule: Q01DX010 (sc), vehicle: Klucel (hydroxypropylcellulose) (HPC)) 34 % of control.

Turning to `CO[C@@H]1[C@H](O)CC[C@]2(CO2)[C@H]1[C@@]1(C)O[C@@H]1CC=C(C)C`, the T/C (dose: 150.0 mg/kg/injection, schedule: Q04DX003 (sc), vehicle: suspension in saline) is 79 % of control; the T/C (dose: 300.0 mg/kg/injection, schedule: Q04DX003 (sc), vehicle: suspension in saline) is 90 % of control; the T/C (dose: 600.0 mg/kg/injection, schedule: Q04DX003 (sc), vehicle: suspension in saline) is 63 % of control; the T/C (dose: 1200.0 mg/kg/injection, schedule: Q04DX003 (sc), vehicle: suspension in saline) is 63 % of control.
